From patent publication US20040053219A1, “Method for analysing human immunodeficiency virus (HIV) phenotypic characteristics” (priority 2000, published 2004)
Where two headings read alike, the source gives them in different places.

Assays:
[1] = system: recombinant virus, specimen R1 (69N/T, 70R); assay: RVA susceptibility to RTI, recombinant virus from patient specimen R1; assay type: cell-based, HIV-1; details: specimen R1, genotype 69N/T, ratio of IC50 of specimen to NL43 in parallel
Procedure: (§1) The determination of the susceptibility of an HIV virus is performed as follows: 293 T cells are transfected with 7.5 μg of pSRT plasmid linearised with NruI, 0.1 μg of pVSV-G plasmid and 0.5 and 1 μg of product from the HIV reverse transcriptase PCR reaction. The transfection precipitate is removed from the cells after 18 hours of incubation and the fresh growth medium is added. After 24 hours of culture, the supernatant is clarified by centrifugation (500 g, 15 minutes) and transferred on P4 indicator cells which have been pre-incubated with serial dilutions of a reverse transcriptase inhibitor, in triplicate wells, for four hours. The range of inhibitor concentrations used varies according to the compounds. The signal produced by activating the marker gene was developed with CPRG for 48 hours, as for the analysis of the susceptibility to a reverse transcriptase inhibitor and the IC50 index was calculated using the median effect equation.
(§2) The reproducibility of the method to determine the susceptibility of recombinant virus (RVA) to reverse transcriptase inhibitors (RTI) was evaluated with a series of tests on 5 specimens, selected so as to represent a wide range of susceptibility profiles, between 4 and 8 tests per specimen, using RNA preparations and separate PCR reactions.
(§3) (b) The Resistance Index is the ratio of the IC50 in the specimen with reference to that of NL43 determined in parallel.

NL4-3 reference virus = assay: Recombinant virus assay (RVA): susceptibility to reverse transcriptase inhibitors, single replication cycle, P4 indicator cells; assay type: cell-based, HIV-1
Procedure: as §1
The pSRT plasmid comprising a deletion in the region coding for pol ranging from reverse transcriptase codon 24 (base 2618) to reverse transcriptase codon 432 (base 3872) includes all the mutations associated with a resistance phenomenon known to date. The homologous sequences of the PCR reverse transcriptase product ranging 88 base pairs upstream and 186 base pairs downstream from the deletion in pSRT. The transfections to determine the susceptibility to reverse transcriptase inhibitors are performed with a 293T cell line with a strong capacity to be transfected rather than with HeLa cells. This is not a problem since the cells are eliminated from the supernatant containing the virus by centrifugation before the transfer of P4 cells.
Given that the early phases of virus replication, including reverse transcription, take place in indicator P4 cells in this type of determination, these cells are treated with serial dilutions of reverse transcriptase inhibitors.
(§4) The inhibitor concentration ranges are selected as a function of the cellular toxicity of each compound and the IC50/IC90 ratio for the susceptibility of resistant isolates (Table 1). […] A range of four dilutions in series, starting at 200 μM, was used for abacavir, enabling the detection of up to 60 times more resistance.
For RVA reverse transcriptase, the IC50 index is used rather than the IC90 index since the detection of the IC90 index for resistant viruses could require toxic levels of compound for most reverse transcriptase inhibitors.

[2] = system: 22 viruses from specimens of patients with a standard treatment; assay: RVA susceptibility to RTI, panel of 22 patient viruses compared with NL43; assay type: cell-based, HIV-1; details: for median RI (Resistance Index): median over 22 viruses, 3 RVA replicates, reference NL43
Procedure: as §1
To determine whether NL43 is a suitable reference virus for comparison with clinical isolates, a panel of specimens taken from patients with a standard treatment were tested on 3 RVA replicates for their susceptibility to reverse transcriptase inhibitors.

[3] = system: recombinant virus, specimen R5 (215Y, 41L, 74V, 100I, 103N); assay: RVA susceptibility to RTI, recombinant virus from patient specimen R5; assay type: cell-based, HIV-1; details: for Resistance Index (geometric mean): specimen R5, genotype 215Y, 41L, 74V, 100I, 103N, IC50 ratio to NL43, '>' = IC50 above the detectable range in all tests; for susceptibility / level of resistance (in words): specimen R5
Procedure: as §1, §2, §3

[4] = system: recombinant virus, specimen R3 (184V, 215F); assay: RVA susceptibility to RTI, recombinant virus from patient specimen R3; assay type: cell-based, HIV-1; details: specimen R3, genotype 184V, 21SF; IC50 ratio to NL43; '>' = IC50 above the detectable range in all tests
Procedure: as §1, §2, §3

[5] = system: recombinant virus, specimen R4 (41L, 67N, 69D, 184V, 190A, H208Y, 210W, 215Y); assay: RVA susceptibility to RTI, recombinant virus from patient specimen R4; assay type: cell-based, HIV-1; details: specimen R4, genotype 41L, IC50 ratio to NL43, '>' = IC50 above the detectable range in all tests
Procedure: as §1, §2, §3

P4 cells = assay type: cell-based; details: cellular toxicity for P4 indicator cells
Procedure: as §4

[6] = system: recombinant virus, specimen R2 (multi-compound resistance complex 62V, 75I, 77L, 116Y, 151M; 184V; 181C, 190A); assay: RVA susceptibility to RTI, recombinant virus from patient specimen R2; assay type: cell-based, HIV-1; details: specimen R2, genotype 41L, 67N, 69N, 751, 77L, 115F, 208Y, 215F, 219Q, IC50 ratio to NL43, '>' = IC50 above the detectable range in all tests
Procedure: as §1, §2, §3

resistant virus LAI-L91H = assay: Susceptibility of recombinant HIV viruses to fusion inhibitors: LAI-L91H; assay type: cell-based, HIV-1; details: reference virus not given
Source text: (§5) The invention also relates to an analytical method to determine the susceptibility of an HIV virus to a fusion inhibiting compound targeting HIV-1 gp41 protein, consisting of performing the amplification in step b either with the pair of primers SEQ ID NO: 13, SEQ ID No: 14 followed by a second amplification with the pair of primers SEQ ID No: 15, SEQ ID No: 16, or with the pair of primers SEQ ID No: 17, SEQ ID No: 18 followed by a second amplification with the pair of primers SEQ ID No: 18, SEQ ID No: 16, adding said fusion inhibiting compound or not, possibly at different concentrations, during the culture of the cell host obtained in step e, before step f and comprising in step g the comparison of the expression of the marker gene with and without fusion inhibiting compound targeting HIV-1 gp41.
The recombinations obtained by performing the amplification of the step (b) with the pair of primers FuA: 5′[…]3′ (SEQ ID No: 23) et FuB: 5′ […]3′ (SEQ ID No: 24) followed by a second amplification step, performed with the primer FuC: 5′[…]3′ (SEQ ID No: 25) and a mixture of the following primers: FuD1: 5′[…]3′ (SEQ ID No: 26) FuD2: 5′[…]3′ (SEQ ID No: 27) are highly efficient. […]
The increase of the IC50index of the resistant virus LAI-L91H (Labrosse B. et al. J Virol. 2000 vol 74 pages 2142-2150) by reference to RPR103611 has been measured.

[7] = system: NL4.3 virus (partially resistant); assay: Susceptibility of recombinant HIV viruses to fusion inhibitors: NL4.3; assay type: cell-based, HIV-1
Source text: as §5, with “gp41. […]” for “gp41.”
(§6) The IC50 index for a highly resistant virus NL-DIM ( Rimski L. T. et al. J. Virol. 1998, vol 72, pages 986-993) and for the NL4.3 virus (which is partially resistant) has been measured by reference to the DP178 inhibitor.

[8] = system: highly resistant virus NL-DIM; assay: Susceptibility of recombinant HIV viruses to fusion inhibitors: NL-DIM; assay type: cell-based, HIV-1
Source text: as §5, with “gp41. […]” for “gp41.”
as §6

[9] = Human immunodeficiency virus 1, NL43, NL4-3 reference virus, P4 cells, geometric mean of 20 repeated tests, read-out: Geometric mean IC50
[10] = Human immunodeficiency virus 1, NL43, read-out: Geometric mean IC50

Molecule | Resistance Index (geometric mean) [1] | IC50 (NL4-3 reference virus; [9]) | Resistance Index (geometric mean) [3] | susceptibility / level of resistance (in words) [3] | Resistance Index (geometric mean) [4] | Resistance Index (geometric mean) [5] | Resistance Index (geometric mean) [6] | other results
Nc1ccn([C@@H]2CS[C@H](CO)O2)c(=O)n1 [3TC, lamivudine] | 1.3 | 1510 nM | 1.8 | – | – | – | – | median RI (Resistance Index) [2]: ~1.22
Cc1cn([C@H]2C[C@H](N=[N+]=[N-])[C@@H](CO)O2)c(=O)[nH]c1=O [AZT, zidovudine] | – | 18 nM | – | remains susceptible | – | – | – | –
Nc1nc(NC2CC2)c2ncn([C@H]3C=C[C@@H](CO)C3)c2n1 [Abacavir, abacavir] | 1.1 | 2230 nM | 1.7 | – | 4.3 | 4.3 | > | IC50 index / toxicity for P4 cells (P4 cells): approximately 250 μM
Cc1cn([C@H]2C=C[C@@H](CO)O2)c(=O)[nH]c1=O [D4T, stavudine] | 1.4 | – | 1.7 | – | 3.2 | 3.6 | 43.5 | IC50 (NL4-3 reference virus; [10]): 444 nM; median RI (Resistance Index) [2]: approximately 0.92
O=c1[nH]cnc2c1ncn2[C@H]1CC[C@@H](CO)O1 [DDI] | 1.4 | – | 2.6 | – | 3.1 | 3.1 | 26.9 | IC50 (NL4-3 reference virus; NL4-3 reference virus, P4 cells, geometric mean of 20 repeated tests, read-out: Geometric mean IC50): 1610 nM
O=C1Nc2ccc(Cl)cc2[C@@](C#CC2CC2)(C(F)(F)F)O1 [Efavirenz, efavirenz] | 1.0 | – | > | high levels of resistance | 1.0 | 1.0 | 74.9 | IC50 (NL4-3 reference virus; [10]): 716 nM
Cc1ccnc2c1NC(=O)c1cccnc1N2C1CC1 [Nevirapine, nevirapine] | 2.2 | 37 nM | 580.5 | high levels of resistance | 1.2 | 1.2 | > | resistance index ([2]; one virus of the panel with mutation on codon 98 (A for S) of reverse transcriptase): 11.0
C=C(C)[C@@H]1CC[C@]2(C(=O)NCCCCCCCC(=O)N[C@@H](CC(C)C)[C@@H](O)CC(=O)O)CC[C@]3(C)[C@H](CC[C@@H]4[C@@]5(C)CC[C@H](O)C(C)(C)[C@@H]5CC[C@]43C)[C@@H]12 [RPR103611] | – | – | – | – | – | – | – | increase of IC50 index (resistant virus LAI-L91H): more than 100 times
enfuvirtide | – | – | – | – | – | – | – | increase of IC50 index ([7]; NL4.3 by reference to LAI): 12,5 times; increase of IC50 index ([7]; NL4.3 by reference to T5A1 virus): 10 times; increase of IC50 index ([8]; NL-DIM by reference to LAI virus (culture adapted)): more than 100 times; increase of IC50 index ([8]; NL-DIM by reference to T5A1 virus (primary plasma virus)): more than 80 times
